Where two headings read alike, the source gives them in different places.
Legend:
bronchial asthma = details: literature, in words; cited from earlier work
[1] = tested on: hypotension induced by ACh i.v.; experiment: inhibition of the hypotension induced by ACh i.v. in the anestetized rat (systemic effect; absorption by inhalation); assay type: in vivo; details: for absorption through inhalatory route: i.v. vs inhalation, in words
From the text: The absorption of compound (I) by inhalation in comparison with mequitazine has been studied by comparing their sistemic effects with intravenous and inhalatory routes. The inhibiting effect of the tested compounds on the hypotension induced by ACh i.v. in the anestetized rat has been used.

[2] = tested on: isolated ileum of guinea pig (ACh); experiment: spasm induced by ACh in the isolated ileum of guinea pig
[3] = tested on: isolated ileum of guinea pig (histamine); experiment: spasm induced by histamine in the isolated ileum of guinea pig
[4] = tested on: isolated ileum of guinea pig (serotonine); experiment: spasm induced by serotonine in the isolated ileum of guinea pig
[5] = tested on: isolated ileum of guinea pig (PGF2 alpha); experiment: spasm induced by PGF2 alpha in the isolated ileum of guinea pig
[6] = acute toxicity test in the mouse; assay type: in vivo; details: for LD50: in vivo
bronchospasm = experiment: anti-bronchospastic activity (general statement); details: in words
[7] = tested on: isolated trachea of guinea pig (KCl); experiment: spasm induced by KCl in the isolated trachea of guinea pig; details: for IC50: Cavia porcellus
[8] = tested on: bronchospasm induced by ACh aerosol; details: for activity in bronchospasm induced by ACh aerosol: awake guinea pig, in words, i.v. in b22, mequitazine at doses up to 20 times higher or essentially subtoxic
[9] = tested on: isolated trachea of guinea pig (histamine); experiment: spasm induced by histamine in the isolated trachea of guinea pig; details: for IC50: Cavia porcellus
[10] = tested on: bronchospasm induced by histamine aerosol; details: for ED50: Cavia porcellus, iv
[11] = tested on: isolated trachea of guinea pig (methacholine); details: for IC50: Cavia porcellus; for activity greater than mequitazine: isolated guinea pig trachea, methacholine
[12] = tested on: bronchospasm induced by ACh i.v.; details: for ED50: Cavia porcellus, iv, anestetized guinea pig, ACh i.v.
H1 receptors = details: literature, in words, cited from earlier work
[13] = listed as 3-(10-H-phenothiazin-methyl)-1-methyl-1-azoniabicyclo[2.2.2]-octane iodide
[14] = vs classic anti-histaminic drugs

SMILES | effect in bronchial asthma / bronchial hyperreactivity (bronchial asthma) | absorption through inhalatory route ([1]; anestetized rat) | LD50 ([6]; iv) [mg/kg] | LD50 ([6]; oral route) [mg/kg] | anti-bronchospastic activity (bronchospasm) | IC50 [7] [µM] | IC50 [9] [µM] | ED50 [10] [µmol/kg] | IC50 [11] [µM] | ED50 ([12]; compound by inhalatory route) [µmol/kg] | ED50 ([12]; compound by venous route) [µmol/kg] | further results
CN(C)CCC(c1ccc(Cl)cc1)c1ccccn1 (centres unmarked) [clopheniramine] | singularly inefficacious in the bronchial asthma | – | – | – | – | – | – | – | – | – | – | –
C[N+]12CCC(CC1)C(CN1c3ccccc3Sc3ccccc31)C2 (centres unmarked) [compound (I), 3-(10-H-phenothiazin-methyl)-1-methyl-1-azoniabicyclo[2.2.2]-octane iodide] | – | very poorly absorbed | 3.15 | ~700 | powerful anti-bronchospastic activity | 38 | 0.074 | 0.12 | 0.034 | 0.026 | 0.051 | ED50 ([1]; Rattus norvegicus, iv): 1.17 µmol/kg; absorption lower than that of mequitazine ([1]; inhalatory route): at least 24 times; ED50 ([1]; inhibition of hypotension, anestetized rat, inhalatory administration): can not be calculated (25 μmol/kg); times more active than mequitazine [2]: 7 times; times more active than mequitazine [3]: 15 times; times more active than mequitazine [4]: 6 times; times more active than mequitazine [5]: 2 times; absorption by oral route ([6]; inferred from i.v. vs oral LD 50, in words): very modest; activity greater than mequitazine ([7]; isolated guinea pig trachea, KCl): 3 times; ED50 ([8]; Cavia porcellus, iv): 0.41 µmol/kg; activity in bronchospasm induced by ACh aerosol [8]: intense and dose-dependent activity; activity in bronchospasm induced by ACh aerosol [8, 13]: remarkable power; activity greater than mequitazine ([9]; isolated guinea pig trachea, histamine): 50 times; activity higher than that of mequitazine ([10]; awake guinea pig, histamine aerosol, i.v.): about 5 times; activity greater than mequitazine [11]: 1200 times; activity greater than mequitazine [11, 13]: 1000 times; anti-bronchospastic activity higher than that of mequitazine ([12]; inhalatory route): 20 times; activity higher than that of mequitazine ([12]; venous route): 13 times
COc1ccc(CN(CCN(C)C)c2ccccn2)cc1 [mepyramine] | singularly inefficacious in the bronchial asthma | – | – | – | – | – | – | – | – | – | – | –
c1ccc2c(c1)Sc1ccccc1N2CC1CN2CCC1CC2 (centres unmarked) [mequitazine, reference compound] | protective action | complete absorption | 23.7 | ~350 | very slightly active or even inactive | 110 | 3.7 | 0.65 | 40 | 0.499 | 0.674 | ED50 ([1]; inhaled or nasal, inhibition of hypotension, anestetized rat, inhalatory administration, read-out: ED 50): 4.06 µmol/kg; ED50 ([1]; iv, inhibition of hypotension, anestetized rat, i.v. route, read-out: ED 50): 4.01 µmol/kg; action on H1 receptors (H1 receptors): histamine antagonism at the level of the H1 receptors; duration of action (H1 receptors; [14]): long lasting action; side effects of the CNS level (H1 receptors; [14]): scarcity of side effects
CC(CN1c2ccccc2Sc2ccccc21)N(C)C (centres unmarked) [promethazine] | singularly inefficacious in the bronchial asthma | – | – | – | – | – | – | – | – | – | – | –

From patent US4603132A, “Phenothiazine compounds with anti-bronchospastic activity and pharmaceutical compositions containing them” (priority 1984, dated 1986)
